# Results as given in article PMC9838390, “Discovery and biosynthesis of karnamicins as angiotensin converting enzyme inhibitors” (Nature Communications, 2023).
# Tested on: KnmB2
# Assay: NADPH oxidation of KnmB2 and variants (340 nm)
# Format: biochemical, L. rhizosphaerae NEAU-A2
# Procedure: Hydrogen peroxide formation assay and NADPH oxidation
# The hydrogen peroxide formed from KnmB1, KnmB2 and their variants were measured using the Hydrogen Peroxide Assay Kit (Beyotime Industrial Co. Ltd, Shanghai, China)4-5. 5–100 µL of enzyme reaction mixture was added to 100 µL of working reagent (S0038-1). The mixture was incubated for 30 min at 25 °C, at which time the absorbance at 560 nm was measured by NanoDrop 2000c (Fisher Scientific). The level of H2O2 was calculated according to a standard concentration curve from standard […]
# NADPH detection was carried out in the cuvette by NanoDrop 2000c (Fisher Scientific). NADPH signal at 340 nm was monitored in time using 6220 M–1 cm–1 as […]
# Spectral data for new compounds […]
# Reaction conditions: 50 mM Tris-HCl buffer (pH 7.5),
# 0.15 mM NADPH, and 2 μM KnmB1 or KnmB2. […]
# μM KnmB1 or variants, or 0.1 mM substrate 24/32/36. (h) NADPH oxidation of KnmB2 and variants. (i) NADPH oxidation of KnmB2 and variants in the presence 24 or 32. (j) H2O2 generation for KnmB2 and variants in the presence 24 or 32. Reaction conditions (h-j) for KnmB2 and their variants: 50 mM Tris-HCl buffer (pH 7.5), 0.15 mM NADPH, 2 μM KnmB2 or variants, or 0.1 mM substrate 24/32. Values are the means ± SD of n = 3 independent experiments, except for KnmB2+24 (T = 40 min), KnmB2-N219D+24 (T = 4 min), KnmB2-Y215F+24 (T= 1 min and 3 min) in i and j, and KnmB2+32 (T= 8 min) in j (n = 2). Source data are provided as a Source Data file. […]
smiles,measurement,setting,value
CC(C)CCCCc1nc(-c2cc(O)cc(C(N)=O)n2)cs1 [Compound 24],"NADPH oxidation, average value","KnmB2+24, Time 0",0.0000 µM
same,"NADPH oxidation, average value","KnmB2+24, Time 1",5.8950 µM
same,"NADPH oxidation, average value","KnmB2+24, Time 2",11.0397 µM
same,"NADPH oxidation, average value","KnmB2+24, Time 3",17.6849 µM
same,"NADPH oxidation, average value","KnmB2+24, Time 4",25.7235 µM
same,"NADPH oxidation, average value","KnmB2+24, Time 5",35.2090 µM
same,"NADPH oxidation, average value","KnmB2+24, Time 8",55.4662 µM
same,"NADPH oxidation, average value","KnmB2+24, Time 10",66.9346 µM
same,"NADPH oxidation, average value","KnmB2+24, Time 15",84.8339 µM
same,"NADPH oxidation, average value","KnmB2+24, Time 20",95.5520 µM
same,"NADPH oxidation, average value","KnmB2+24, Time 30",104.1265 µM
same,"NADPH oxidation, average value","KnmB2+24, Time 40",102.4920 µM
same,"NADPH oxidation, average value","KnmB2+24, Time 60",111.3076 µM
same,"NADPH oxidation, average value","KnmB2-F205A+24, Time 0",0.0000 µM
same,"NADPH oxidation, average value","KnmB2-F205A+24, Time 1",0.7985 µM
same,"NADPH oxidation, average value","KnmB2-F205A+24, Time 2",1.4255 µM
same,"NADPH oxidation, average value","KnmB2-F205A+24, Time 3",1.3880 µM
same,"NADPH oxidation, average value","KnmB2-F205A+24, Time 4",1.7631 µM
same,"NADPH oxidation, average value","KnmB2-F205A+24, Time 5",1.7310 µM
same,"NADPH oxidation, average value","KnmB2-F205A+24, Time 8",1.8274 µM
same,"NADPH oxidation, average value","KnmB2-F205A+24, Time 10",2.3312 µM
same,"NADPH oxidation, average value","KnmB2-F205A+24, Time 15",2.6313 µM
same,"NADPH oxidation, average value","KnmB2-F205A+24, Time 20",3.4566 µM
same,"NADPH oxidation, average value","KnmB2-F205A+24, Time 30",5.0911 µM
same,"NADPH oxidation, average value","KnmB2-F205A+24, Time 40",7.7546 µM
same,"NADPH oxidation, average value","KnmB2-F205A+24, Time 60",10.8575 µM
same,"NADPH oxidation, average value","KnmB2-N291D+24, Time 0",0.0000 µM
same,"NADPH oxidation, average value","KnmB2-N291D+24, Time 2",1.4470 µM
same,"NADPH oxidation, average value","KnmB2-N291D+24, Time 4",2.7331 µM
same,"NADPH oxidation, average value","KnmB2-N291D+24, Time 5",4.2337 µM
same,"NADPH oxidation, average value","KnmB2-N291D+24, Time 8",6.8060 µM
same,"NADPH oxidation, average value","KnmB2-N291D+24, Time 10",8.5745 µM
same,"NADPH oxidation, average value","KnmB2-N291D+24, Time 15",11.8971 µM
same,"NADPH oxidation, average value","KnmB2-N291D+24, Time 20",16.3451 µM
same,"NADPH oxidation, average value","KnmB2-N291D+24, Time 30",24.5445 µM
same,"NADPH oxidation, average value","KnmB2-N291D+24, Time 40",34.3516 µM
same,"NADPH oxidation, average value","KnmB2-N291D+24, Time 60",49.1426 µM
same,"NADPH oxidation, average value","KnmB2-Y215A+24, Time 0",0.0000 µM
same,"NADPH oxidation, average value","KnmB2-Y215A+24, Time 1",0.2519 µM
same,"NADPH oxidation, average value","KnmB2-Y215A+24, Time 2",0.5145 µM
same,"NADPH oxidation, average value","KnmB2-Y215A+24, Time 3",0.7020 µM
same,"NADPH oxidation, average value","KnmB2-Y215A+24, Time 4",0.6913 µM
same,"NADPH oxidation, average value","KnmB2-Y215A+24, Time 5",0.7449 µM
same,"NADPH oxidation, average value","KnmB2-Y215A+24, Time 8",0.9968 µM
same,"NADPH oxidation, average value","KnmB2-Y215A+24, Time 10",1.3237 µM
same,"NADPH oxidation, average value","KnmB2-Y215A+24, Time 15",2.0043 µM
same,"NADPH oxidation, average value","KnmB2-Y215A+24, Time 20",2.2883 µM
same,"NADPH oxidation, average value","KnmB2-Y215A+24, Time 30",3.8532 µM
same,"NADPH oxidation, average value","KnmB2-Y215A+24, Time 40",5.5520 µM
same,"NADPH oxidation, average value","KnmB2-Y215A+24, Time 60",9.2926 µM
same,"NADPH oxidation, average value","KnmB2-Y215F+24, Time 0",0.0000 µM
same,"NADPH oxidation, average value","KnmB2-Y215F+24, Time 1",2.5724 µM
same,"NADPH oxidation, average value","KnmB2-Y215F+24, Time 2",4.4480 µM
same,"NADPH oxidation, average value","KnmB2-Y215F+24, Time 3",6.5113 µM
same,"NADPH oxidation, average value","KnmB2-Y215F+24, Time 4",8.5745 µM
same,"NADPH oxidation, average value","KnmB2-Y215F+24, Time 5",12.2187 µM
same,"NADPH oxidation, average value","KnmB2-Y215F+24, Time 8",19.5606 µM
same,"NADPH oxidation, average value","KnmB2-Y215F+24, Time 10",24.7588 µM
same,"NADPH oxidation, average value","KnmB2-Y215F+24, Time 15",37.2990 µM
same,"NADPH oxidation, average value","KnmB2-Y215F+24, Time 20",48.1779 µM
same,"NADPH oxidation, average value","KnmB2-Y215F+24, Time 30",66.6667 µM
same,"NADPH oxidation, average value","KnmB2-Y215F+24, Time 40",81.1361 µM
same,"NADPH oxidation, average value","KnmB2-Y215F+24, Time 60",100.0536 µM
same,coupling efficiency,"hydroxylatable effector for KnmB2, from NADPH consumption and H2O2 formation in time",0–45%
